The test system of one experiment is TNFα. Put plainly: IRAK4 Monocyte TNFα Cell Based Assay (LPS-stimulated, TR-FRET TNFα detection). Details: species or system human. Particulars: Homo sapiens, Monocyte, human monocytes, LPS-stimulated; Table 2 second part (compounds 33-343); read-out: EC50 MONO TNF HTRF. In short, it runs like this: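 Monocytes (5,000 cells/well) treated with compound (0.1% DMSO) for 1 hour at 37° C, then stimulated with 50 pg/ml LPS for 4 hours. TNFα in medium quantified by TR-FRET two-antibody detection after overnight room-temperature incubation. Percent of control calculated against unstimulated (0%) and LPS-stimulated (100%) cells.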
Background: TR-FRET usually uses a lanthanide donor and a delayed reading to cut background.

A further experiment deals with T1, IRAK4 enzyme (Homo sapiens, UniProt Q9NWZ3).
T1 construct: purchased Carna Biosciences, Chuo-ku, Kobe, Japan
T1 sequence (Q9NWZ3 1-460): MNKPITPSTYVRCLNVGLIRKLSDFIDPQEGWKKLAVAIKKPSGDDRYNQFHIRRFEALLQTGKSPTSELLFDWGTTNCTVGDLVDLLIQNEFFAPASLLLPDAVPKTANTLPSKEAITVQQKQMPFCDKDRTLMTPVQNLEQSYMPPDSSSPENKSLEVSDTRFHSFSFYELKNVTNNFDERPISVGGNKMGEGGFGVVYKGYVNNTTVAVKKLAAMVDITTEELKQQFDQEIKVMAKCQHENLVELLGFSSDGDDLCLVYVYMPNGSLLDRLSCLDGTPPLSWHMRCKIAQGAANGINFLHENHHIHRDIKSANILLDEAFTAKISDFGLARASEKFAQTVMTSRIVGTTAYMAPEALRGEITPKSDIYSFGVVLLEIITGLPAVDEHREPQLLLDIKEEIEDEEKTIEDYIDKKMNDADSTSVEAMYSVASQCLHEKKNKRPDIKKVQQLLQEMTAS
As to the kind of experiment: IRAK4 Biochemical Assay (TR-FRET, STK1 KinEASE). Particulars: 500 μM ATP, Table 2 second part (compounds 33-343), read-out: IC50 IRAK4-HTBS. The gist of the method: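 Human IRAK4 (0.75 nM) preincubated 15 min with compound and 2 μM STK1 peptide, then reacted 120 min at room temperature with 500 μM ATP in HEPES pH 7.0 buffer with MgCl2 and DTT. EDTA stop with Cryptate anti-phosphopeptide antibody and tracer, 60 min; TR-FRET read as 665/615 nm ratio.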

The EC50 is the concentration that produces a half-maximal response. What is called IC50 is the point on the concentration scale where inhibition reaches its midpoint.

Molecules are shown by their SMILES.

Turning to `CC(=O)N[C@H]1[C@@H]2CCC[C@H]1CN(c1nnc(-c3cnc(-c4ccc5cc(C#N)cnn45)cc3NC(C)C)s1)C2` [Example 165, N-((1R,5S,9r)-3-(5-(6-(3-cyanopyrrolo[1,2-b]pyridazin-7-yl)-4-(isopropylamino)pyridin-3-yl)-1,3,4-thiadiazol-2-yl)-3-lazabicyclo[3.3.1]nonan-9-yl)acetamide], the EC50 with TNFα stood at 39.1 nM. Also, on IRAK4 enzyme, the IC50 worked out at 1.15 nM.
Take `CC(C)Nc1cc(-c2ccc3cc(C#N)cnn23)ncc1-c1nnc(N2C[C@H]3CC[C@@H](C2)[C@@H]3NC(=O)C2(C)COC2)s1` [Example 94, N-((1R,5S,8s)-3-(5-(6-(3-cyanopyrrolo[1,2-b]pyridazin-7-yl)-4-(isopropylamino)pyridin-3-yl)-1,3,4-thiadiazol-2-yl)-3-azabicyclo[3.2.1]octan-8-yl)-3-methyloxetane-3-carboxamide]: in the experiment with TNFα, the EC50 was 4 nM. Also, at IRAK4 enzyme, the half-inhibitory concentration (IC50) is 0.9 nM.
For the compound `CC(=O)N[C@@H]1[C@@H]2CN(c3nnc(-c4cnc(-c5ccc6cc(C#N)cnn56)cc4NC(C)C)s3)C[C@@H]21` [Compound 239, N-((1R,5S,6r)-3-(5-(6-(3-cyanopyrrolo[1,2-b]pyridazin-7-yl)-4-(isopropylamino)pyridin-3-yl)-1,3,4-thiadiazol-2-yl)-3-azabicyclo[3.1.0]hexan-6-yl)acetamide], the half-maximal effective concentration (EC50) in the experiment on TNFα is 4.9 nM. Also, the IC50 on IRAK4 enzyme was determined as 0.11 nM.
In the case of `CC(=O)NC[C@H]1C[C@H](c2nnc(-c3cnc(-c4ccc5cc(C#N)cnn45)cc3NC(C)C)s2)C1` [Compound 290, N-(((1r,3r)-3-(5-(6-(3-cyanopyrrolo[1,2-b]pyridazin-7-yl)-4-(isopropylamino)pyridin-3-yl)-1,3,4-thiadiazol-2-yl)cyclobutyl)methyl)acetamide], the EC50 in the experiment with TNFα came to 16.2 nM. Moreover, the IC50 at IRAK4 enzyme is 0.33 nM.
Regarding `CC1(Nc2cc(-c3ccc4cc(C#N)cnn34)ncc2-c2nnc(N3C[C@H]4CC[C@@H](C3)[C@H]4O)s2)COC1` [Example 149, 7-(5-(5-((1R,5S,8r)-8-hydroxy-3-azabicyclo[3.2.1]octan-3-yl)-1,3,4-thiadiazol-2-yl)-4-((3-methyloxetan-3-yl)amino)pyridin-2-yl)pyrrolo[1,2-b]pyridazine-3-carbonitrile], the EC50 in the experiment on TNFα was found to be 4.9 nM. Also, at IRAK4 enzyme, the 50% inhibitory concentration (IC50) was 0.31 nM.
The corresponding values for `CC(C)Nc1cc(-c2ccc3cc(C#N)cnn23)ncc1-c1nnc(N2C3CC2CN(C(=O)CN=S(C)(C)=O)C3)s1` [Compound 276, 7-(5-(5-(3-(2-((dimethyl(oxo)-16-sulfanylidene)amino)acetyl)-3,6-diazabicyclo[3.1.1]heptan-6-yl)-1,3,4-thiadiazol-2-yl)-4-(isopropylamino)pyridin-2-yl)pyrrolo[1,2-b]pyridazinc-3-carbonitrile] are 7.8 nM and 0.89 nM.
`CC(C)Nc1cc(-c2ccc3cc(C#N)cnn23)ncc1-c1nnc(N2C[C@H]3CC[C@@H](C2)[C@@H]3NS(C)(=O)=O)s1` [Example 58, N-((1R,5S,8s)-3-(5-(6-(3-cyanopyrrolo[1,2-b]pyridazin-7-yl)-4-(isopropylamino)pyridin-3-yl)-1,3,4-thiadiazol-2-yl)-3-azabicyclo[3.2.1]octan-8-yl)methanesulfonamide]: in the experiment on TNFα, the EC50 was found to be 9.3 nM. The IC50 on IRAK4 enzyme came to 1.88 nM.
The corresponding values for `CC(=O)NC[C@H]1C[C@@H](c2nnc(-c3cnc(-c4ccc5cc(C#N)cnn45)cc3NC(C)C)s2)C1` [Compound 289, N-(((1s,3s)-3-(5-(6-(3-cyanopyrrolo[1,2-b]pyridazin-7-yl)-4-(isopropylamino)pyridin-3-yl)-1,3,4-thiadiazol-2-yl)cyclobutyl)methyl)acetamide] are 21.4 nM and 0.24 nM.
Regarding `N#Cc1cnn2c(-c3cc(NC4COC4)c(-c4nnc([C@H]5CC[C@H](NC(=O)C6CC6)CC5)s4)cn3)ccc2c1` [Example 135, N-((1r,4r)-4-(5-(6-(3-cyanopyrrolo[1,2-b]pyridazin-7-yl)-4-(oxetan-3-ylamino)pyridin-3-yl)-1,3,4-thiadiazol-2-yl)cyclohexyl)cyclopropanecarboxamide], the EC50 in the experiment on TNFα was found to be 10.5 nM. In addition, at IRAK4 enzyme, the concentration for half-maximal inhibition (IC50) was determined as 0.52 nM.
The corresponding values for `C[C@H](C#N)Nc1cc(-c2ccc3cc(C#N)cnn23)ncc1-c1nnc([C@H]2CC[C@H](NC(=O)C3CC3)CC2)s1` [Example 160, N-((1R,4r)-4-(5-(4-(((R)-1-cyanoethyl)amino)-6-(3-cyanopyrrolo[1,2-b]pyridazin-7-yl)pyridin-3-yl)-1,3,4-thiadiazol-2-yl)cyclohexyl)cyclopropanecarboxamide] are 2.8 nM and 0.52 nM.
In the case of `CC(C)Nc1cc(-c2ccc3cc(C#N)cnn23)ncc1-c1nnc(N2C[C@H]3CC[C@@H](C2)[C@@H]3Nc2ncccn2)s1` [Compound 308, 7-(4-(isopropylamino)-5-(5-((1R,5S,8s)-8-(pyrimidin-2-ylamino)-3-azabicyclo[3.2.1]octan-3-yl)-1,3,4-thiadiazol-2-yl)pyridin-2-yl)pyrrolo[1,2-b]pyridazine-3-carbonitrile], in the experiment on TNFα, the EC50 turned out to be 18.4 nM. On IRAK4 enzyme, the IC50 was determined as 1.85 nM.
Take `CC(C)Nc1cc(-c2ccc3cc(C#N)cnn23)ncc1-c1nnc(C(=O)N[C@H]2C[C@H](O)C2)s1` [Example 213, 5-(6-(3-cyanopyrrolo[1,2-b]pyridazin-7-yl)-4-(isopropylamino)pyridin-3-yl)-N-((1r,3r)-3-hydroxycyclobutyl)-1,3,4-thiadiazole-2-carboxamide]: the 50% effective concentration (EC50) with TNFα stood at 1830 nM. At IRAK4 enzyme, the IC50 is 0.31 nM.
On to `CC(C)Nc1cc(-c2ccc3cc(C#N)cnn23)ncc1-c1nnc(N2C[C@H]3CC[C@@H](C2)[C@@H]3NC(=O)C2CCN(C)CC2)s1` [Example 100, N-((1R,5S,8s)-3-(5-(6-(3-cyanopyrrolo[1,2-b]pyridazin-7-yl)-4-(isopropylamino)pyridin-3-yl)-1,3,4-thiadiazol-2-yl)-3-azabicyclo[3.2.1]octan-8-yl)-1-methylpiperidine-4-carboxamide], for which, in the experiment on TNFα, the concentration giving a half-maximal response (EC50) was found to be 2.1 nM. Moreover, the IC50 on IRAK4 enzyme came out at 0.8 nM.
Turning to `N#Cc1cnn2c(-c3cc(NC4CCOCC4)c(-c4nnc([C@H]5CC[C@H](NC(=O)C6CC6)CC5)s4)cn3)ccc2c1` [Example 156, N-((1r,4r)-4-(5-(6-(3-cyanopyrrolo[1,2-b]pyridazin-7-yl)-4-((tetrahydro-2H-pyran-4-yl)amino)pyridin-3-yl)-1,3,4-thiadiazol-2-yl)cyclohexyl)cyclopropanecarboxamide], in the experiment with TNFα, the 50% effective concentration (EC50) came to 10.9 nM. The IC50 on IRAK4 enzyme stood at 1.42 nM.
The corresponding values for `CC(C)Nc1cc(-c2ccc3cc(C#N)cnn23)ncc1-c1nnc(C(=O)N[C@H]2C[C@@H](O)C2)s1` [Example 215, 5-(6-(3-cyanopyrrolo[1,2-b]pyridazin-7-yl)-4-(isopropylamino)pyridin-3-yl)-N-((1s,3s)-3-hydroxycyclobutyl)-1,3,4-thiadiazole-2-carboxamide] are 3100 nM and 0.7 nM.
Turning to `COC(=O)NC[C@H]1C[C@H](Nc2cc(-c3ccc4cc(C#N)cnn34)ncc2-c2nnc(N3CCN4CCOC[C@H]4C3)s2)C1` [Example 51, methyl (((1R,3r)-3-((2-(3-cyanopyrrolo[1,2-b]pyridazin-7-yl)-5-(5-((R)-hexahydropyrazino[2,1-c][1,4]oxazin-8(1H)-yl)-1,3,4-thiadiazol-2-yl)pyridin-4-yl)amino)cyclobutyl)methyl)carbamate], the EC50 in the experiment on TNFα came out at 4.7 nM. On IRAK4 enzyme, the IC50 amounted to 1.73 nM.
As for `CC(=O)N[C@@H]1[C@@H]2CCC[C@H]1CN(c1nnc(-c3cnc(-c4ccc5cc(C#N)cnn45)cc3NC(C)C)s1)C2` [Example 166, N-((1R,5S,9s)-3-(5-(6-(3-cyanopyrrolo[1,2-b]pyridazin-7-yl)-4-(isopropylamino)pyridin-3-yl)-1,3,4-thiadiazol-2-yl)-3-azabicyclo[3.3.1]nonan-9-yl)acetamide], in the experiment on TNFα, the 50% effective concentration (EC50) was found to be 2.3 nM. At IRAK4 enzyme, the IC50 turned out to be 0.66 nM.
The corresponding values for `CC(=O)N[C@H]1CC[C@H](c2nnc(-c3cnc(-c4ccc5cc(C#N)cnn45)cc3N[C@H]3C[C@@](C)(O)C3)s2)CC1` [Compound 243, N-((1R,4r)-4-(5-(6-(3-cyanopyrrolo[1,2-b]pyridazin-7-yl)-4-(((1s,3S)-3-hydroxy-3-methylcyclobutyl)amino)pyridin-3-yl)-1,3,4-thiadiazol-2-yl)cyclohexyl)acetamide] are 6.4 nM and 0.55 nM.
For the compound `CNc1cc(-c2ccc3cc(C#N)cnn23)ncc1-c1nnc([C@H]2C[C@H](NC(C)=O)C2)s1` [Example 282, N-((1r,3r)-3-(5-(6-(3-cyanopyrrolo[1,2-b]pyridazin-7-yl)-4-(methylamino)pyridin-3-yl)-1,3,4-thiadiazol-2-yl)cyclobutyl)acetamide], in the experiment with TNFα, the 50% effective concentration (EC50) came to 22.4 nM. The IC50 on IRAK4 enzyme was determined as 0.59 nM.

These data come from US12060351B2, “Thiadiazole IRAK4 inhibitors” (Gilead Sciences, Inc., priority 2018, dated 2024).
